Here are results for one compound from patent US20160151486A1, “CD40 Signalling Inhibitor and a Further Compound, Wherein the Further Compound is a Bile Acid, a Bile Acid Derivative, an TGR5-Receptor Agonist, an FXR Agonist or a Combination Thereof, for the Treatment of Chronic Inflammation, and the Prevention of Gastrointestinal Cancer or Fibrosis” (Fast Forward Pharmaceuticals B.V., priority 2013, published 2016).

The structures appear in SMILES notation.

Assay [1] has as its system peripheral blood mononuclear cells (PBMC). The experiment in a line: Cytokine secretion by PBMC stimulated with megaCD40L (after IFN-γ). The class given is cell-based, human. As to conditions: megaCD40L stimulus. Here is the method:
(§1) PBMC were freshly isolated from heparinized human blood using Fycoll density gradient centrifugation (Histopaque; Sigma Diagnostics). PBMC were cultured in RPMI containing 10% FCS in round-bottom 96-well plates at a concentration of 5×10E5 cells/mL. Two different stimuli were used to induce cytokine secretion from PBMC: • 1. PBMC were cultured in the presence of IFN-γ (250 U/mL) for 24 hours to induce upregulation of CD40. The CD40 pathway was subsequently activated for 24 hours with megaCD40L (100 ng/mL, Enzo Life Sciences). • 2. PBMC were cultured in the presence of IFN-γ for 24 hours to induce upregulation of CD40. Cells were subsequently stimulated for 24 hours with megaCD40L (100 ng/mL) and LPS (100 ng/mL).
(§2) Stimulated PBMC were cultured in the absence or presence of variable concentrations of PG102 (5, 10 and 100 ng/mL) and/or 6-ECDCA (0.1, 1 and 5 μM). PG102 was added simultaneously with the stimulus. In contrast, 6-ECDCA was added 3 hours before adding the stimulus. At the end of the culture period, supernatants were collected and stored at −80° C. until cytokine analysis was performed. The BD cytometric Bead Array (CBA) Human Inflammatory Cytokines Kit (BD Biosciences) was used to measure IL-1β, IL-8, IL-6, TNF and IL-12p70 levels in the culture supernatants. The assay was performed according to the manufacturer's instructions. In brief, capture beads for the cytokines of interest were mixed with supernatant or human inflammatory cytokine standards and PE detection reagent. Samples were incubated for 3 hours at room temperature in the dark. Subsequently, samples were washed and analyzed on a FACS CANTO II cytometer (BD Biosciences). Data was analyzed using de FCAP Array software (BD Biosciences).

The test system of assay [2] is chemically induced intestinal inflammation. As to conditions: in vivo; cited from earlier work.
A further assay deals with C57/Bl6 wild type mice. Briefly: DSS-induced colitis mouse model. It counts as in vivo. As to the method:
Colitis was induced in C57/Bl6 wild type mice by administration of 2.5% (wt/vol) Dextran Sodium Sulphate (DSS; MW. 36000-50000 Da, MP Biochemicals Inc) in drinking water for 8 days. Pharmacological activation of FXR was accomplished by treatment with 6-ethyl-chenodeoxycholic acid (6-ECDCA). 6-ECDCA (10 mg/kg/day) or vehicle were administered by oral gavage for three days prior to the start of DSS-treatment, and continued until the end of the DSS-treatment. At the second day of DSS treatment (day 4 of 6-ECDCA treatment), mice were given an intraperitoneal (i.p.) injection with 250 μg of the hamster antibody against mouse CD40L, MR-1, or control IgG (LEAF™ Purified Armenian Hamster IgG Isotype Ctrl Antibody, Biolegend).
There were 5 treatment groups (n=10 mice/group) in the experiment: […]
Daily changes in body weight were assessed and the body weight at day 2-11 was expressed relative to the body weight at day 1. […] 4 h after FITC administration, mice were sacrificed and the amount of fluorescence in the blood was determined as a marker for permeability. The colon was isolated and colon length was measured. […] Granulocytes were identified based on GR-1 and CD11b expression and expressed as percentage of living cells in the spleen. […] Culture supernatants were collected and TNF was measured using an ELISA.

Assay [3] relates to peripheral blood mononuclear cells (PBMC). Briefly: Cytokine secretion by PBMC stimulated with megaCD40L and LPS (after IFN-γ). The class given is cell-based, human. As to the method: as §1, §2
Assay [4] concerns LPS-induced TNF production. As to conditions: cited from earlier work.
The mark [5] stands for this setting: 6-ECDCA 5 μM, megaCD40L and LPS stimulus.

As for `CC[C@H]1[C@@H](O)[C@@H]2[C@H](CC[C@]3(C)[C@@H]([C@H](C)CCC(=O)O)CC[C@@H]23)[C@@]2(C)CC[C@@H](O)C[C@@H]12` [6-ECDCA, 6-ethyl-chenodeoxycholic acid], in assay [1] (6-ECDCA 5 μM), the “inhibition of IL-1β release” value turned out to be 35%, the “inhibition of IL-6 release” value came out at 18%, the “inhibition of IL-8 release” value was 17% and the “inhibition of IL-12p70 release” value was 20%. For the same compound, the “inhibition of TNF release” value in assay [1] (6-ECDCA 5 μM) came to 14%. Further, the “release of TNF, IL-6, IL-8, IL-1β and IL-12p70” value in assay [1] (6-ECDCA alone at 0.1 or 1 μM) is reported as “did not inhibit”. In addition, the “chemically induced intestinal inflammation” value in assay [2] is “interfere with chemically induced intestinal inflammation”. Besides, the “colitis disease process induced by DSS” value in the assay on C57/Bl6 wild type mice (6-ECDCA 10 mg/kg/day oral gavage, MR-1 250 μg i.p. once, second day of DSS) is listed as “interfered with the colitis disease process”. Moreover, in the assay with C57/Bl6 wild type mice (end of experiment, FIG. 11), the “granulocytes in the spleen (GR-1, CD11b; FACS)” value is listed as “increase in granulocytes”. In assay [3] (setting [5]), the “inhibition of IL-1β” value was 12%, the “inhibition of IL-6” value stood at 0%, the “inhibition of IL-8” value was 9% and the “inhibition of IL-12p70” value was 22%. Further, the “inhibition of TNF” value in assay [3] (setting [5]) was determined as 21%. In addition, the “inhibiting proinflammatory cytokine release” value in assay [3] (activation of the CD40 pathway alone or in combination with the TLR-4 pathway) is “not very effective”. In addition, the “LPS-induced TNF production” value in assay [4] is given as “inhibit LPS-induced TNF production in a dose-dependent fashion”.
